Assay results published in PMC11496352, “Synthesis of Novel Plant-Derived Encapsulated Radiolabeled Compounds for the Diagnosis of Parkinson’s Disease and the Evaluation of Biological Effects with In Vitro/In Vivo Methods” (Molecular Neurobiology, 2024).

Key:
[1] = set-up: method as in PMID 27992940; conditions: rats; cited from earlier work
PC-12 cell line = test: Cytotoxicity study (MTT) on PC-12 cells; format: cell-based; conditions: Rattus norvegicus
Description: (§1) SY-SH5Y and PC-12 cell lines were used in in vitro cell culture studies. SH-SY5Y cells in a medium consisting of minimum Essential Medium (Eagle) and 10% fetal bovine serum (FBS); PC-12 cells were produced in a medium consisting of RPMI 1640 medium, 10% horse serum, and 5% fetal bovine serum (FBS). All cells were incubated in 5% CO2 and 37 °C. Fresh medium was added by changing the medium every 2 days. After the cells were produced enough to cover 80% of the flasks, they were separated from the flask by means of a 0.25% (W / V) trypsin–EDTA solution and plated in 24-well plates for incorporation studies and 96-well plates for cytotoxicity studies and study groups were formed.
(§2) Cells were prepared from SY-SH5Y and PC-12 cell suspensions at 5 × 10^4 cells / mL in each well of 96-well plates. One hundred microliters of cell suspension was added to each well-formed and the solution containing MA prepared with sterile SF at five different (10^0, 10^–1, 10^–2, 10^–3, 10^–4 nM) concentrations was added to the wells outside the control. As a negative control, media without cells and reagents were used. In the study, each parameter was studied in triplicate. The plate containing the cells was incubated at 37 °C in 5% CO2. SH-SY5Y cells were incubated at 24, 48, and 72 h of incubation by adding 10 μl of WST solution to each well and incubating for another 4 h. On other hand, MTT solution was added to PC-12 cells and incubated for 4 more hours. At the end of the incubation, the MTT solution on the cells was removed and 200 µL DMSO was added to the PC-12 cells. All cells were read using a spectrophotometer, at 450 nm wavelength and 690 nm reference range, for the absorbance value of each well. Negative control was accepted as zero absorbance and % viability values were calculated with the formula [(measured absorbance value/control value) × 100] and the same procedures were repeated for the MA-L-DOPA compound.

SH-SY5Y cell line = test: Cytotoxicity study (WST) on SH-SY5Y cells; format: cell-based; conditions: Homo sapiens
Description: as §1, §2

| SMILES | time within which uptake in the brain tissue occurs [1] [h] | IC50 (PC-12 cell line; PC-12, 24 hour) [µM] | IC50 (PC-12 cell line; PC-12, 48 hour) [µM] | IC50 (PC-12 cell line; PC-12, 72 hour) [µM] | IC50 (SH-SY5Y cell line; 24 hour) [µM] | IC50 (SH-SY5Y cell line; 48 hour) [µM] | IC50 (SH-SY5Y cell line; 72 hour) [µM] |
| --- | --- | --- | --- | --- | --- | --- | --- |
| C[C@H]1[C@H](C)CC[C@]2(C(=O)O[C@@H]3O[C@H](CO[C@@H]4O[C@H](CO)[C@@H](O[C@@H]5O[C@@H](C)[C@H](O)[C@@H](O)[C@H]5O)[C@H](O)[C@H]4O)[C@@H](O)[C@H](O)[C@H]3O)CC[C@]3(C)C(=CC[C@@H]4[C@@]5(C)C[C@@H](O)[C@H](O)[C@@](C)(CO)[C@@H]5[C@H](O)C[C@]43C)[C@H]12 [MA, Madecassoside] | ≤ 1 | 12.8 ± 2.21 | 12.6 ± 2.41 | 8.54 ± 1.37 | 12.9 ± 2.14 | 12.8 ± 2.24 | 7.45 ± 1.14 |
| CC1CCC2(C(=O)OC3OC(COC4OC(CO)C(OC5OC(C)C(O)C(OC(=O)C(N)Cc6ccc(O)c(O)c6)C5O)C(O)C4O)C(O)C(O)C3O)CCC3(C)C(=CCC4C5(C)CC(O)C(O)C(C)(CO)C5C(O)CC43C)C2C1C [MA-L-DOPA] |  | 12.5 ± 2.21 | 10 ± 2.06 | 6.93 ± 1.09 | 12.9 ± 2.09 | 10.1 ± 2.08 | 7.16 ± 1.11 |
